# Experimental data from publication PMC6199744, “Development of Chemical Proteomics for the Folateome and Analysis of the Kinetoplastid Folateome” (ACS Infectious Diseases, 2018).
# Where two headings read alike, the source gives them in different places.
# Tests used:
# Type in all cases: binding
# [1] = biological target: T1, HeLa cell extract proteins (Homo sapiens, UniProt P31689)
# T1 construct: endogenous in cells; host or cells: HeLa cell extract
# [2] = biological target: T2, HeLa cell extract proteins (Homo sapiens, UniProt P04083)
# T2 construct: endogenous in cells; host or cells: HeLa cell extract
# T2 sequence (P04083 1-346): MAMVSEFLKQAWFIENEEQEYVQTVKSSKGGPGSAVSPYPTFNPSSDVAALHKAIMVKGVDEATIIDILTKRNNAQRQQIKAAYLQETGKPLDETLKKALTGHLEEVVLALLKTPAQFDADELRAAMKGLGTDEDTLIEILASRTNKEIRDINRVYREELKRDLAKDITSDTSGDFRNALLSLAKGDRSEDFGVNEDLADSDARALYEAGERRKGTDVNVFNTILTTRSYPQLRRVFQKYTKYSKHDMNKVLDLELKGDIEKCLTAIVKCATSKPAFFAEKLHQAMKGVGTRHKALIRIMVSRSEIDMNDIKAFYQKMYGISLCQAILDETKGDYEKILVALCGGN
# [3] = biological target: T3, HeLa cell extract proteins (Homo sapiens, UniProt Q9UPY5)
# T3 construct: endogenous in cells; host or cells: HeLa cell extract
# T3 sequence (Q9UPY5 1-501): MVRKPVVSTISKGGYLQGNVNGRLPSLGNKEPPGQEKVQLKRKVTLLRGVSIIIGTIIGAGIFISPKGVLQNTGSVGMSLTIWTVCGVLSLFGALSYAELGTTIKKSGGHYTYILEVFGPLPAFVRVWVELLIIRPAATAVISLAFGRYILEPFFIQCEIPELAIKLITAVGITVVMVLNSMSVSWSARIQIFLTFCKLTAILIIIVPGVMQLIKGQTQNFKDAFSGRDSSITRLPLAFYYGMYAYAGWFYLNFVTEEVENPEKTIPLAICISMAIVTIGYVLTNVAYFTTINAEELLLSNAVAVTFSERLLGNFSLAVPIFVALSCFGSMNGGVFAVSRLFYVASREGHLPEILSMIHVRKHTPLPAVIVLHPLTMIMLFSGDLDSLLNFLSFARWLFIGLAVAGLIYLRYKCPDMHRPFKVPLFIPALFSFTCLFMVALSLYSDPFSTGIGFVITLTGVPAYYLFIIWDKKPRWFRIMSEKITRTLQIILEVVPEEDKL
# [4] = biological target: T4, HeLa cell extract proteins (Homo sapiens, UniProt Q9H1A4)
# T4 construct: endogenous in cells; host or cells: HeLa cell extract
# [5] = biological target: T5, HeLa cell extract proteins (Homo sapiens, UniProt P60174)
# T5 construct: endogenous in cells; host or cells: HeLa cell extract
# [6] = biological target: T6, HeLa cell extract proteins (Homo sapiens, UniProt P16219)
# T6 construct: endogenous in cells; host or cells: HeLa cell extract
# T6 sequence (P16219 25-412): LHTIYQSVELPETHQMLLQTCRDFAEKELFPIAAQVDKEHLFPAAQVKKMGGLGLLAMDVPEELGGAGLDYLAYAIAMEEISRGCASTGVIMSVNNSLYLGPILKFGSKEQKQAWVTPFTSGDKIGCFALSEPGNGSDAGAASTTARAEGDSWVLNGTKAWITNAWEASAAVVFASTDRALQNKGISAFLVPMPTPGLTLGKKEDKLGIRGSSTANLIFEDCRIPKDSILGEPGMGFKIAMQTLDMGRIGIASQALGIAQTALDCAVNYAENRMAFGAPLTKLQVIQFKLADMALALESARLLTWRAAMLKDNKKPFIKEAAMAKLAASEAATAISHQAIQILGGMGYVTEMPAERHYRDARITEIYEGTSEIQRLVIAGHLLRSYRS
# [7] = biological target: T7, HeLa cell extract proteins (Homo sapiens, UniProt P33993)
# T7 construct: endogenous in cells; host or cells: HeLa cell extract
# [8] = biological target: T8, HeLa cell extract proteins (Homo sapiens, UniProt Q13310)
# T8 construct: endogenous in cells; host or cells: HeLa cell extract
# [9] = biological target: T9, HeLa cell extract proteins (Homo sapiens, UniProt P48651)
# T9 construct: endogenous in cells; host or cells: HeLa cell extract
# [10] = biological target: T10, HeLa cell extract proteins (Homo sapiens, UniProt O15027)
# T10 construct: endogenous in cells; host or cells: HeLa cell extract
# [11] = HeLa, protein ANAPC1 (ANAPHASE-PROMOTING COMPLEX SUBUNIT 1)
# [12] = HeLa, protein ACADS (SHORT-CHAIN SPECIFIC ACYL-COA DEHYDROGENASE, MIT[…])
# [13] = HeLa, protein SEC16A (HY[…] LOC9919)
# [14] = HeLa, protein TPI1 (ISOFORM 1 OF TRIOSEPHOSPHATE ISOMERASE.)
# T1 sequence (P31689 whole entry): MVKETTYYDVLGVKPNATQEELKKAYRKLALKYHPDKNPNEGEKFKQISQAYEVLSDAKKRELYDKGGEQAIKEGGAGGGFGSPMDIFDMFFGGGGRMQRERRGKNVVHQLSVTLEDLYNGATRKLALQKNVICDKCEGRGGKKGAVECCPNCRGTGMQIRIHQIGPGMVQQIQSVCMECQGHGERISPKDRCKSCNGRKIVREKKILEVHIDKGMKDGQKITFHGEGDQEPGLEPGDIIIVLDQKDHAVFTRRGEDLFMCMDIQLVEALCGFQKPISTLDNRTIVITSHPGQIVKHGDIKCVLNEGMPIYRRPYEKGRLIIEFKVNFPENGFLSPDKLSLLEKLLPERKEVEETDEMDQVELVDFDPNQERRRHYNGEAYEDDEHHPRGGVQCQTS
# T10 sequence (O15027 whole entry): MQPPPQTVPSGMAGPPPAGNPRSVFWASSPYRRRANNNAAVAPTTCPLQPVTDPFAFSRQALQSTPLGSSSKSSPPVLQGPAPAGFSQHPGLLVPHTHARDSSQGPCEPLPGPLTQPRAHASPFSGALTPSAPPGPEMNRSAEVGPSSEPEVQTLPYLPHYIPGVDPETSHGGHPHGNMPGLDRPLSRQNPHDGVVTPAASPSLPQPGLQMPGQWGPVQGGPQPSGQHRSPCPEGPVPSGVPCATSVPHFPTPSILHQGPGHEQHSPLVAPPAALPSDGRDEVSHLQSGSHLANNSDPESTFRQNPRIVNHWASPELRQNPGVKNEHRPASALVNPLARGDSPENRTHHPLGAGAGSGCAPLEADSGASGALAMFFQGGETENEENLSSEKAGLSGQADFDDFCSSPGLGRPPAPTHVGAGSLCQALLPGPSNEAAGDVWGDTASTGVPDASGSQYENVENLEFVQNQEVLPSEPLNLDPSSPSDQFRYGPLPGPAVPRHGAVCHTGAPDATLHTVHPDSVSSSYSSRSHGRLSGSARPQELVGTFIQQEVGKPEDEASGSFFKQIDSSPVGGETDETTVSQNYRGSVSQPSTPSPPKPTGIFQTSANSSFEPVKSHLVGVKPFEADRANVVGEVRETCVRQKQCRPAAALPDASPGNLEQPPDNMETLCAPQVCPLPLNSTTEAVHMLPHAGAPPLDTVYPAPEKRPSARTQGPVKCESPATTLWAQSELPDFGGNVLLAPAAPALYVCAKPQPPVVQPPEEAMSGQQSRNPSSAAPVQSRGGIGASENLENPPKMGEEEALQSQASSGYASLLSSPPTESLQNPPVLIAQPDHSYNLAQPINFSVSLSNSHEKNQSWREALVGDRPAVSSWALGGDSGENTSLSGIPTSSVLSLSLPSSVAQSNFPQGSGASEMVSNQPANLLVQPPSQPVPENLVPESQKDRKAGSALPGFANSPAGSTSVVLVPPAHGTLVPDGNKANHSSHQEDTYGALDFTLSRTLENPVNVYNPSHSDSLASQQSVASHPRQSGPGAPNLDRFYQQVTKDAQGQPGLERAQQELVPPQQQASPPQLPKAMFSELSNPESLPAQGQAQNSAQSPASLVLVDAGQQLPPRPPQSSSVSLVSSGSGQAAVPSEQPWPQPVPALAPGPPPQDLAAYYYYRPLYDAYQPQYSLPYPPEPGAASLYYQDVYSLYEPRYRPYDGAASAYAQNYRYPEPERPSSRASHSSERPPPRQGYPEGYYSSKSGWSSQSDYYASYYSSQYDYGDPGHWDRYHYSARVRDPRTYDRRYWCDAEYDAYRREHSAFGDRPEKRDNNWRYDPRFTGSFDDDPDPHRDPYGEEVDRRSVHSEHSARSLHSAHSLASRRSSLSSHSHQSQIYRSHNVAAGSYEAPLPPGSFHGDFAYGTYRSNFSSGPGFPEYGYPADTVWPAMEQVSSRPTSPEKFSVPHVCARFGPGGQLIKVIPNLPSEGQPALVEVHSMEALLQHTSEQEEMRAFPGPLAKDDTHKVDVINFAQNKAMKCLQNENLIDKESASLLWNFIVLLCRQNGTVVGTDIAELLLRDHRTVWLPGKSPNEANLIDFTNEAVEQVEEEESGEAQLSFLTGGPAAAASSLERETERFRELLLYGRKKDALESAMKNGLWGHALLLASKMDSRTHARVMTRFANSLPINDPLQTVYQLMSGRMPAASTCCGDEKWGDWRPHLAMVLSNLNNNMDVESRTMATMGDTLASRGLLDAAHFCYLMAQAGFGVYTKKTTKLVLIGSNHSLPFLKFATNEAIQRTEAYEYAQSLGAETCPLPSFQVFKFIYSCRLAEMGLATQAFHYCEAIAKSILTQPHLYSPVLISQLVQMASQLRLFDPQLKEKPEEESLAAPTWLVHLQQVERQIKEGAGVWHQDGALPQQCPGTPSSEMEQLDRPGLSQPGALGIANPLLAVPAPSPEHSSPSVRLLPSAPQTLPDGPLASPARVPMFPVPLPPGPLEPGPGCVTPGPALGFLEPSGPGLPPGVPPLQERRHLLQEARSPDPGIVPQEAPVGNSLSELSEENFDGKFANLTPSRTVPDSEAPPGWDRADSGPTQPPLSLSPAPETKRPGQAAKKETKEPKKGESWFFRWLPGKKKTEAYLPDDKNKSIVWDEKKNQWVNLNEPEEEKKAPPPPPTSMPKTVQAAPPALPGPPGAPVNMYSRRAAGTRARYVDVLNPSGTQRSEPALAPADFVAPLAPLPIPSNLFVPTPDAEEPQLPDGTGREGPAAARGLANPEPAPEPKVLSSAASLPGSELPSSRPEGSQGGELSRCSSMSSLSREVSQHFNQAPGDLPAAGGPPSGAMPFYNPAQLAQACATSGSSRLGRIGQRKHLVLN
# T4 sequence (Q9H1A4 whole entry): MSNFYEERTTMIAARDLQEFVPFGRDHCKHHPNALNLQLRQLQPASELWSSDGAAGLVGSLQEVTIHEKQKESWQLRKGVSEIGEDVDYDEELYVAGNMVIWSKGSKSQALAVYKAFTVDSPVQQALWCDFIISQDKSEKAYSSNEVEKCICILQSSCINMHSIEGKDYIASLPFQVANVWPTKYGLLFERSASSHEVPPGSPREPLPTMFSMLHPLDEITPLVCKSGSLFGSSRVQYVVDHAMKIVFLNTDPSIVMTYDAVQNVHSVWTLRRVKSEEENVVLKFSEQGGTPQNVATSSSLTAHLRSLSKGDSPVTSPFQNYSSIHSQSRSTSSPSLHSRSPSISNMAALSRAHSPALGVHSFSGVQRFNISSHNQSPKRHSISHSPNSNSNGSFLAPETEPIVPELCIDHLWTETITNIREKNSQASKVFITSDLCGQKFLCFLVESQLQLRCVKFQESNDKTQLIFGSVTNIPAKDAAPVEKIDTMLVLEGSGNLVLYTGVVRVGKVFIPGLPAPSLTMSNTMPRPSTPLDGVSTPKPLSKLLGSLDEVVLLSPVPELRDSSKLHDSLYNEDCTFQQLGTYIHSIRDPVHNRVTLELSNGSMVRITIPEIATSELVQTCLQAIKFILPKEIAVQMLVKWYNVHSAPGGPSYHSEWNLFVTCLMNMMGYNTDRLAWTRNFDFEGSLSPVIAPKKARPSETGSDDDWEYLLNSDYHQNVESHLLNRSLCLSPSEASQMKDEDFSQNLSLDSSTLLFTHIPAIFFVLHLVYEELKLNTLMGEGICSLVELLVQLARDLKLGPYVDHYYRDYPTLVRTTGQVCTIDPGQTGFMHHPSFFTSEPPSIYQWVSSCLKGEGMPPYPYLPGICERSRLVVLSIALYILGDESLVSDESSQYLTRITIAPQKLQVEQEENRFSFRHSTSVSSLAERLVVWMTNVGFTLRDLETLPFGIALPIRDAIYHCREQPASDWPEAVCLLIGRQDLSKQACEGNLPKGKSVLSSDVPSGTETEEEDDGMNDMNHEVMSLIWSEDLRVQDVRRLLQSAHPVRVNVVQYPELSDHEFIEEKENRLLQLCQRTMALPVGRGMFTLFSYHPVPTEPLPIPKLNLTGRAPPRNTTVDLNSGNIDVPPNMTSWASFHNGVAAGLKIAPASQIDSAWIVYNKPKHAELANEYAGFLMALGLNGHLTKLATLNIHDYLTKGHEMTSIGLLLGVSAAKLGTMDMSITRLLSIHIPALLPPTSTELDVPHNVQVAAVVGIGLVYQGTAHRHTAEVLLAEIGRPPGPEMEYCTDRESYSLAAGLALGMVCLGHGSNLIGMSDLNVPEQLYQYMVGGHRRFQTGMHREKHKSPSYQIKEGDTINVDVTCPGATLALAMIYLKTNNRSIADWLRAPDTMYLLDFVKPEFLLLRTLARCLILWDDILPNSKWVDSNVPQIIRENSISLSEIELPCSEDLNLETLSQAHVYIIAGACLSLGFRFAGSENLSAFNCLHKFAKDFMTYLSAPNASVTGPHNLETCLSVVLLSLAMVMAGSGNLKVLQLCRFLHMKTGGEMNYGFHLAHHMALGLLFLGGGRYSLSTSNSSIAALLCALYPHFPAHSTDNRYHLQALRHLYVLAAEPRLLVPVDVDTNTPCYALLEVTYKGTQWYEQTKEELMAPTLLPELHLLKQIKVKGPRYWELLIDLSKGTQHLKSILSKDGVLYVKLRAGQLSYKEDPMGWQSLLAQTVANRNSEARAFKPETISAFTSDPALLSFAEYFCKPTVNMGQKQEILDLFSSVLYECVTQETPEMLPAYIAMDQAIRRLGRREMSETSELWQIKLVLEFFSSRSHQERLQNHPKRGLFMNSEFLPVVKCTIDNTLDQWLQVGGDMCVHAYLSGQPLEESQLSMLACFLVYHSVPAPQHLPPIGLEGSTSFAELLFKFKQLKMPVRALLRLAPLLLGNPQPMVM
# T5 sequence (P60174 whole entry): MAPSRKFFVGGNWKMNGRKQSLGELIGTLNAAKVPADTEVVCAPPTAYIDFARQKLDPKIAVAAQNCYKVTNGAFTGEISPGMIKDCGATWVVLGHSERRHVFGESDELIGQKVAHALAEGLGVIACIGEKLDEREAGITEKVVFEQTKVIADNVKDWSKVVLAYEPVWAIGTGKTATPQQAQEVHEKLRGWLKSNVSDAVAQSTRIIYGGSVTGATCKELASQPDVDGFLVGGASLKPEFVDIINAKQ
Compound,"fold changes relative to vehicle control ([1]; HeLa, protein DNAJA1)","fold changes relative to vehicle control ([2]; protein ANXA1, HeLa)","fold changes relative to vehicle control ([3]; captured protein SLC7A11, HeLa)","fold changes relative to vehicle control ([4]; HeLa, protein ANAPC1)","fold changes relative to vehicle control ([6]; protein ACADS, HeLa)","fold changes relative to vehicle control ([7]; protein MCM7, HeLa)","fold changes relative to vehicle control ([8]; captured protein PABPC4, HeLa)","fold changes relative to vehicle control ([9]; captured protein PTDSS1, HeLa)","fold changes relative to vehicle control ([10]; HeLa, protein SEC16A)","fold changes relative to vehicle control ([3]; HeLa, captured protein SLC7A11)","fold changes relative to vehicle control [4, 11]","fold changes relative to vehicle control ([5]; HeLa, protein TPI1)","fold changes relative to vehicle control [6, 12]","fold changes relative to vehicle control ([8]; HeLa, protein PABPC4)","fold changes relative to vehicle control ([9]; HeLa, protein PTDSS1)",also measured
Nc1nc2cccc(-c3ccccc3)c2n1Cc1ccc(Cl)c(Cl)c1 [compound 3],0.92,0.86,0.99,1.21,0.99,1.24,0.94,0.77,1.19,,,,,,,"fold changes relative to vehicle control ([5]; HeLa, protein TPI1 (ISOFORM 1 OF TRIOS[…].)): 0.88 fold"
"Nc1nc2[nH]cc(CCc3ccc(C(=O)N[C@@H](CCC(=O)O)C(=O)O)cc3)c2c(=O)[nH]1 [PTX, pemetrexed]",,,,,,,,,,,,,,,,fold changes relative to vehicle control [1]: 0.93; fold changes relative to vehicle control [2]: 0.98; fold changes relative to vehicle control [3]: 0.91; fold changes relative to vehicle control [4]: 1.1; fold changes relative to vehicle control [5]: 1.22; fold changes relative to vehicle control [6]: 1.09; fold changes relative to vehicle control [7]: 0.96; fold changes relative to vehicle control [8]: 0.93; fold changes relative to vehicle control [9]: 0.8; fold changes relative to vehicle control [10]: 1.17
"Nc1nc2c(c(=O)[nH]1)N(C=O)C(CNc1ccc(C(=O)N[C@@H](CCC(=O)O)C(=O)O)cc1)CN2 (stereo partly shown) [LEU, leucovorin]",0.99,0.81,,,,0.91,,,,0.96,1.09,1.03,1.06,0.83,0.84,"fold changes relative to vehicle control [10, 13]: 1.25"
CCCCCCOc1cccc(Cc2cnc(N)nc2N)c1 [compound 2],1.11,1.86,0.92,1.15,1.1,1.47,1.2,1.03,0.97,,,,,,,"fold changes relative to vehicle control [5, 14]: 2.37 fold"
NCCOCCOCC(=O)Nc1nc2ncc(CNc3ccc(C(=O)NC(CCC(=O)O)C(=O)O)cc3)nc2c(=O)[nH]1 (stereo not shown) [compound 6],1.06,1.24,,,,1.16,,,,0.93,1.1,1.41,1.07,1.06,0.89,"fold changes relative to vehicle control [10, 13]: 1.13"
CCCCCCOc1ccc(Cc2cnc(N)nc2N)cc1 [compound 1],1.07,1.21,0.98,1.05,0.91,1.06,0.86,0.68,1,,,,,,,"fold changes relative to vehicle control [5, 14]: 1.44 fold"
NCCCNc1ccc(C(=O)NC(CCC(=O)O)C(=O)O)cc1 (stereo not shown) [compound 7],1.15,0.87,,,,1.14,,,,0.95,1.18,1,1.04,1,0.96,"fold changes relative to vehicle control ([10]; HeLa, protein SEC16A (HYPOTHETICAL PROTEIN LOC9919)): 1.3"
